Experimental data taken from paper PMC6396121 (ACS Omega, 2019).

How the values were obtained:
[1] = test system: BHK cells expressing HRAS^G12V; assay: Western analysis of cell signaling in BHK cells expressing HRAS G12V; format: cell-based, hamster
[2] = target: HRAS^G12V with Raf^RBD interaction (Homo sapiens, UniProt P01112, G12V); assay: FLIM-FRET of GFP-HRAS G12V with mCherry-RBD in BHK cells; format: cell-based, hamster; conditions: 1 μM compound
Rap1b = target: T1, Rap1b (Homo sapiens, UniProt P61224); assay: MST binding to control GTPase Rap1b; conditions: control RAS-related small GTPase
T1 sequence (P61224 1-166): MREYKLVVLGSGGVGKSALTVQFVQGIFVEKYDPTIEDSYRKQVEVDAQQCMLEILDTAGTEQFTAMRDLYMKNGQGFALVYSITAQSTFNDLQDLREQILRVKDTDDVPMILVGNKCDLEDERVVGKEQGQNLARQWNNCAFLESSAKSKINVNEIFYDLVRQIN

^GDPKRAS^WT = ^GDPKRAS^WT (Homo sapiens, UniProt P01116); assay: MST binding to GDP-bound KRAS WT; conditions: GDP state
KRAS = KRAS (Homo sapiens, UniProt P01116); assay: Intrinsic nucleotide; format: biochemical; conditions: 1 μM compound
HRAS^WT = HRAS^WT (Homo sapiens, UniProt P01112); assay: MST binding to HRAS WT; conditions: GDP and GTP-bound forms
[3] = test system: oral cancer cells with or without mutant HRAS; assay: CyQUANT proliferation, oral cancer cells; format: cell-based; conditions: 5 μM compound, 72 h
[4] = test system: BHK cells expressing KRAS^G12V; assay: Western analysis of cell signaling in BHK cells expressing KRAS G12V; format: cell-based, hamster
KRASWT = KRASWT (Homo sapiens, UniProt P01116); assay: Intrinsic nucleotide exchange; format: biochemical; conditions: 1 μM compound
[5] = test system: lung cancer cells with wild-type KRAS; assay: CyQUANT proliferation, lung cancer cells with wild-type KRAS; format: cell-based; conditions: 5 μM compound, 72 h
[6] = target: KRAS^G12D and RBD interaction (Homo sapiens, UniProt P01116, G12D); assay: FLIM-FRET of GFP-KRAS G12D with mCherry-RBD in BHK cells; format: cell-based, hamster; conditions: 1 μM compound for 2 h; ∼1.93 ns untreated, ∼2.3 ns without RBD
[7] = test system: BHK cells expressing KRAS^G12D; assay: Western analysis of cell signaling in BHK cells expressing KRAS G12D; format: cell-based, hamster
KRAS and SOS [8] = target: T2, KRAS and SOS (Homo sapiens, UniProt P01116); assay: SOS-mediated nucleotide exchange; format: biochemical; conditions: 1 μM compound
NRAS^WT = NRAS^WT (Homo sapiens, UniProt P01111); assay: MST binding to NRAS WT; conditions: GDP and GTP-bound forms
NRAS^WT, sequence (P01111 1-166): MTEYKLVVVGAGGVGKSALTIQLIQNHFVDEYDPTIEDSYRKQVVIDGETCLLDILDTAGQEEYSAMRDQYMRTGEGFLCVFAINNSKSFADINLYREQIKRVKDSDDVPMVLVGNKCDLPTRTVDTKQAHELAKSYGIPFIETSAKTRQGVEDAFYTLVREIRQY

KRAS–Raf^RBD interaction = KRAS–Raf^RBD interaction (Homo sapiens, UniProt P01116); assay: Fluorescence polarization of KRAS binding to GST-Raf RBD; format: biochemical; conditions: 1 μM compound
[9] = target: KRAS^G12D–Raf^RBD interaction (Homo sapiens, UniProt P01116, G12D); assay: Pull-down of GFP-KRAS G12D by GST-Raf RBD in cell lysates; format: biochemical; conditions: 1 μM compound
[10] = target: KRAS^G12D–cRaf interaction (Homo sapiens, UniProt P01116, G12D); assay: FLIM-FRET of GFP-KRAS G12D with RFP-cRaf; format: cell-based, hamster; conditions: 1 μM compound
KRAS and SOS [11] = target: T2, KRAS and SOS; assay: SOS-mediated nucleotide; format: biochemical
^GDPKRAS^G12D = ^GDPKRAS^G12D (Homo sapiens, UniProt P01116, G12D); assay: MST binding to GDP-bound KRAS G12D; conditions: GDP state
[12] = test system: lung cancer cells harboring KRAS^G12D or KRAS^G12V; assay: CyQUANT proliferation, lung cancer cells with mutant KRAS; format: cell-based; conditions: 5 μM compound, 72 h

N#CC(=C(/N)Sc1ccccc1N)/C(C#N)=C(/N)Sc1ccccc1N [Compound U0126, reference compound]
effect on MAPK signaling ([1]; 10 μM): almost completely abolished

Cc1nn2c(N3CCN(CCO)CC3)cc(-c3ccccc3)nc2c1-c1ccccc1 [Compound 11, 2-[4-(8-methyl-3,9-diphenyl-2,6,7-triazabicyclo[4.3.0]nona-2,4,7,9-tetraen-5-yl)piperazin-1-yl]ethanol]
effect on p-AKT levels ([1]; western): no statistically significant effect | effect on p-ERK and p-cRaf levels ([1]; western, ligand concentration range tested): less effect | effect on interaction of HRAS^G12V with Raf^RBD [2]: opposite albeit small effect | binding detected by MST (Rap1b): very weak or no binding | binding detected by MST (^GDPKRAS^WT): very weak or no binding | maximum reduction in rate (KRAS): ≤ 5% | binding detected by MST (HRAS^WT): very weak or no binding | growth relative to DMSO control [3]: 60–80% | effect on p-ERK and p-cRaf levels [4]: dose-dependently decreases | maximum reduction in rate (KRASWT): ≤ 5% | growth relative to DMSO control [5]: 60–80% | GFP fluorescence lifetime [6]: ~2.02 ns | drop in p-ERK levels ([7]; 1 μM, 3 h treatment): about 50% | reduction of p-ERK levels ([7]; 5 μM, expanded concentration range): ~50% | concentrations at which p-ERK levels decreased ([7]; primary western screen): ≥ 1 µM | effect on p-AKT levels (AKT pathway signaling) ([7]; western): inhibits signaling through the AKT pathway but to a lesser extent than the MAPK pathway | maximum reduction in rate (KRAS and SOS [8]): ≤ 5% | binding detected by MST (NRAS^WT): very weak or no binding | fold reduction of affinity of KRAS to Raf^RBD (KRAS–Raf^RBD interaction): ~13 fold | reduction of polarization (RAS–Raf^RBD interaction) (KRAS–Raf^RBD interaction; at 2 μM GST–Raf^RBD): > 80% | decrease in GFP–KRAS^G12D levels pulled down [9]: > 50% | quenching of GFP fluorescence lifetime (KRAS^G12D–cRaf interaction) [10]: significantly reduced | effect on SOS-mediated nucleotide release rate (KRAS and SOS [11]): only modestly decreased | maximum reduction in rate (KRAS and SOS [11]; 1 μM compound): ≤ 5% | binding detected by MST (^GDPKRAS^G12D): very weak or no binding | growth relative to DMSO control [12]: 30–35%
